Experimental findings from ChEMBL document CHEMBL6182867, “Discovery of ultra short β-peptoids with selective activity against drug-resistant Mycobacterium tuberculosis” (Eur J Med Chem, 2025) are described below.

Converted amounts (≈) assume the structure as drawn. The source made the active and inactive calls. The rule behind the calls is not given here. Some results are limits rather than exact numbers.

A word on the IC50: it is the concentration that inhibits the measured activity by half. Broadly, the MIC90 is the lowest concentration that inhibits either 90% of growth or 90% of the strains tested, depending on the study.

Data set [1] relates to Mycobacterium tuberculosis. The experiment in a line: Antitubercular activity against Mycobacterium tuberculosis H37Rv assessed as post antibiotic affect by measuring time required for 1 log10 increase in RLU at 0.5 uM measured daily for up to 14 days by luminescence assay. Type of data set: functional. The following applies: time <= 14 day.
Data set [2] can be described thus: Cytotoxicity against African green monkey Vero cells measured after 3 days by resazurin dye based fluorescence assay. It counts as toxicity, cell-based. The following applies: African green monkey (Chlorocebus sabaeus).
The subject of data set [3] is Mycobacterium tuberculosis. In words: Antitubercular activity against Mycobacterium tuberculosis H37Rv assessed as post antibiotic affect by measuring time required for 1 log10 increase in RLU at 0.05 uM measured daily for up to 14 days by luminescence assay. The conditions noted are these: time <= 14 day. Type of data set: functional.
The subject of data set [4] is Mycobacterium avium. The experiment in a line: Antibacterial activity against Mycobacterium avium ATCC 15769 incubated for 6 days by microplate alamar blue assay. It counts as functional. The following applies: ATCC 15769, 144 h, time 6 day.
The subject of data set [5] is Mycobacterium marinum. In words: Antibacterial activity against Mycobacterium marinum ATCC 927 incubated for 5 days by microplate alamar blue assay. Type of data set: functional. The following applies: ATCC 927, 120 h, time 5 day.
Data set [6] relates to Mycobacterium tuberculosis. The experiment in a line: Antitubercular activity against Mycobacterium tuberculosis KMA 1354 by microplate alamar blue assay. Type of data set: functional. In general terms: Resazurin is reduced to fluorescent resorufin, in cell work by metabolically active cells.
Data set [7] concerns Mycobacterium tuberculosis. In words: Antitubercular activity against Mycobacterium tuberculosis H37Rv ATCC 27294 by microplate alamar blue assay. Type of data set: functional.
Data set [8] concerns Mycobacterium tuberculosis. In words: Antitubercular activity against Mycobacterium tuberculosis H37Rv by microplate alamar blue assay. It counts as functional.
Data set [9] concerns Mycobacterium tuberculosis. The experiment in a line: Antitubercular activity against Mycobacterium tuberculosis KMA 4244 by microplate alamar blue assay. It counts as functional.
In data set [10] the test system is Mycobacterium tuberculosis. The experiment in a line: Antitubercular activity against Mycobacterium tuberculosis H37Rv assessed as post antibiotic affect by measuring time required for 1 log10 increase in RLU at 5 uM measured daily for up to 14 days by luminescence assay. The conditions noted are these: time <= 14 day. It counts as functional.
The test system of data set [11] is Mycobacterium tuberculosis. In words: Bactericidal activity against Mycobacterium tuberculosis H37Rv measured up to 7 days by luminescence assay. It counts as functional. The following applies: time <= 7 day.
Data set [12] deals with Mycobacteroides abscessus. The experiment in a line: Antibacterial activity against Mycobacterium abscessus ATCC 19977 incubated for 3 days by microplate alamar blue assay. The conditions noted are these: ATCC 19977, 72 h, time 3 day. It counts as functional.
The subject of data set [13] is Mycobacterium tuberculosis. The experiment in a line: Antitubercular activity against Mycobacterium tuberculosis KMA 5282 by microplate alamar blue assay. Type of data set: functional.
Data set [14] relates to Mycobacterium kansasii. In words: Antibacterial activity against Mycobacterium kansasii ATCC 12478 incubated for 7 days by microplate alamar blue assay. Type of data set: functional. The following applies: ATCC 12478, 168 h, time 7 day.
Data set [15] concerns Mycobacteroides chelonae. The experiment in a line: Antibacterial activity against Mycobacteroides chelonae ATCC 35752 incubated for 3 days by microplate alamar blue assay. Type of data set: functional. The conditions noted are these: ATCC 35752, 72 h, time 3 day.
The test system of data set [16] is Mycobacterium tuberculosis. The experiment in a line: Antitubercular activity against Mycobacterium tuberculosis KMA 3899 by microplate alamar blue assay. Type of data set: functional.
For data set [17], the system named is Mycobacterium tuberculosis. In words: Antitubercular activity against Mycobacterium tuberculosis KMA 4439 by microplate alamar blue assay. It counts as functional.
Data set [18] relates to Mitochondrial membrane. In words: Induction of […] membrane potential loss in Mycobacterium tuberculosis H37Rv at <=MIC measured after 15 mins by DiOC2 dye based fluorescence assay. It counts as cell membranes.
The subject of data set [19] is Mitochondrial membrane. The experiment in a line: Induction of […] membrane potential loss in Mycobacterium tuberculosis H37Rv at <=MIC measured after 24 hrs by DiOC2 dye based fluorescence assay. Type of data set: cell membranes.
In data set [20] the test system is Candida albicans. The experiment in a line: Antifungal activity against Candida albicans by microplate alamar blue assay. Type of data set: functional.

Turning to `CO[C@H]1/C=C/O[C@@]2(C)Oc3c(C)c(O)c4c(O)c(c(/C=N/N5CCN(C)CC5)c(O)c4c3C2=O)NC(=O)/C(C)=C\C=C\[C@H](C)[C@H](O)[C@@H](C)[C@@H](O)[C@@H](C)[C@H](OC(C)=O)[C@@H]1C` [RIFAMPIN], the PAE in data set [1] is about 60 h; in data set [3] it was about 24 h; in [10], about 60 h. In addition, in [2], the IC50 at 3 days is over 95.7 µM. For the same molecule, the MIC90 was 3.05 µM (≈ 2.51 µg/mL) in [4]; 2.23 µM (≈ 1.84 µg/mL) in data set [5]; 0.05 µM in data set [6]; 0.02 µM in data set [7]; 0.06 µM in data set [8]; 0.11 µM in data set [9]. Further, the MIC90 was over 10 µM in data set [12]; 0.14 µM in data set [13]; 2.36 µM (≈ 1.94 µg/mL) in data set [14]; 6.93 µM (≈ 5.7 µg/mL) in data set [15]; 0.04 µM in data set [16]; 0.22 µM in data set [17]. This molecule also displayed an MBC99 in data set [11] of 70 µg/mL (≈ 85.1 µM).
For `CCN(CC)C(=O)CN(Cc1cccc2ccccc12)C(=O)CNCCC(c1ccccc1)c1ccccc1`, the MIC90 in data set [7] amounted to 4.84 µg/mL.
With `CC(=O)NC[C@H]1CN(c2ccc(N3CCOCC3)c(F)c2)C(=O)O1` [LINEZOLID], the MIC90 in [4] amounted to 93.5 µM (≈ 31.5 µg/mL); in data set [5], 17.4 µM (≈ 5.88 µg/mL); in data set [6] it was 0.91 µM; in data set [7], 0.93 µM; in [8], 0.97 µM; in [9], 1 µM. Moreover, the MIC90 in [12] is 88 µM (≈ 29.7 µg/mL); in data set [13], 1.89 µM; in data set [14], 85.6 µM (≈ 28.9 µg/mL); in [15], 5.13 µM (≈ 1.73 µg/mL); in [16] it was 0.48 µM; in [17], 0.95 µM. Also, the MBC99 in data set [11] came to 7310 µg/mL (≈ 21700 µM).
For the molecule `N#CC(C#N)=NNc1cccc(Cl)c1` [CARBONYL CYANIDE M-CHLOROPHENYLHYDRAZONE], the IC50 at 3 days in data set [2] came out at 10.8 µM. Besides, the result in data set [18] was inactive. Moreover, the result in data set [19] was Active.
Take `O=C(CCNCC1CCCO1)N1CCCC1` (configuration not stated): in data set [7], the MIC90 is over 100 µg/mL.
The molecule `CC/C(=C(\c1ccccc1)c1ccc(OCCN(C)C)cc1)c1ccccc1` [TAMOXIFEN] gave an IC50 at 3 days in [2] of 13.9 µM.
In turn, `O=C(CCNCC1CCCO1)NCc1cccc2ccccc12` (configuration not stated) had an MIC90 in [7] of 87.2 µg/mL.
Turning to `O=[N+]([O-])c1cn2c(n1)OC[C@@H](OCc1ccc(OC(F)(F)F)cc1)C2` [PRETOMANID], the MIC90 in data set [7] was 0.1 µM. The molecule further gave an MBC99 in data set [11] of 480 µg/mL (≈ 1340 µM).
As for `NC(=O)c1cnccn1` [PYRAZINAMIDE], the MIC90 in [6] is 0.25 µM; in data set [8], 0.43 µM; in [9] it was 1.51 µM; in data set [13], 0.92 µM; in [16], 0.24 µM; in data set [17], 0.49 µM.
On to `O=C(CCNCc1cccc2ccccc12)NCCC(c1ccccc1)c1ccccc1`, for which the MIC90 in [7] worked out at 43.8 µg/mL.
Same read-out and setting: in the case of `O=C(CNCc1cccc2ccccc12)NCCC(c1ccccc1)c1ccccc1` it was 7.25 µg/mL.
In data set [20], `C[C@@H]1[C@H](O)[C@@H](C)/C=C/C=C/C=C/C=C/C=C/C=C/C=C/[C@H](O[C@@H]2O[C@H](C)[C@@H](O)[C@H](N)[C@@H]2O)C[C@@H]2O[C@](O)(C[C@@H](O)C[C@@H](O)[C@H](O)CC[C@@H](O)C[C@@H](O)CC(=O)O[C@H]1C)C[C@H](O)[C@H]2C(=O)O` [AMPHOTERICIN B] came in with an MIC90 of under 0.195 µM.
Consider `CC[C@H]1OC(=O)[C@H](C)[C@@H](O[C@H]2C[C@@](C)(OC)[C@@H](O)[C@H](C)O2)[C@H](C)[C@@H](O[C@@H]2O[C@H](C)C[C@H](N(C)C)[C@H]2O)[C@](C)(OC)C[C@@H](C)C(=O)[C@H](C)[C@@H](O)[C@]1(C)O` [CLARITHROMYCIN], for which the MIC90 in data set [4] was 2.35 µM (≈ 1.76 µg/mL); in data set [5], 4.72 µM (≈ 3.53 µg/mL); in data set [12], over 10 µM; in data set [14], 2.3 µM (≈ 1.72 µg/mL); in data set [15], 0.15 µM (≈ 0.112 µg/mL).
On to `CC(C)/N=c1\cc2n(-c3ccc(Cl)cc3)c3ccccc3nc-2cc1Nc1ccc(Cl)cc1` [CLOFAZIMINE], for which the MIC90 is 5.78 µM (≈ 2.74 µg/mL) in [4]; 9.92 µM (≈ 4.7 µg/mL) in [5]; 10.7 µM (≈ 5.06 µg/mL) in [12]; 5.68 µM (≈ 2.69 µg/mL) in data set [14]; 5.89 µM (≈ 2.79 µg/mL) in data set [15].
In the case of `CC(C)N(C(=O)CCNCC(c1ccccc1)c1ccccc1)C(C)C`, the MIC90 in data set [7] turned out to be 10.2 µg/mL.
Turning to `CC(C)N(C(=O)CNCc1cccc2ccccc12)C(C)C`, the MIC90 in data set [6] was 85 µg/mL; in [7], 43.3 µg/mL; in data set [8], 88.8 µg/mL; in data set [9] it was 95.5 µg/mL; in data set [13], 93.6 µg/mL; in data set [16] it was 49.9 µg/mL. Also, the MIC90 in data set [17] is 95.2 µg/mL.
`O=C(CNCCC(c1ccccc1)c1ccccc1)N1CCCC1` showed an MIC90 in data set [7] of 11.6 µg/mL.
